For one test, the system named is MHC. Put plainly: Western blot of MHC in dexamethasone-treated myotube cells (in vitro model of muscle loss). The note with it: myotube cells treated with dexamethasone alone; untreated cells = 1. The test is classed as cell-based, mouse. The protocol: (§1) In order to confirm the inhibitory effect of the inventive extract obtained in Example, dexamethasone was treated to myotube cell to establish in vitro model of muscle loss and following experiment was performed according to the procedure disclosed in the previous literature (Int. J. Mol. Med. 2015, 36:29).
(§2) For Western blot analysis, about 3×10^4 mouse myoblast cell cells (C2C12; CRL-1772 ATCC) were incubated in 60 mm plates for 24 hours, and various concentrations of each inventive extract (0, 1, 10, 100 ng/mL) was added to the differentiation medium for 3 days to differentiate. The protein extract was obtained from the differentiated cells using by lysis buffer [25 mM Tris-HCl (pH 7.5), 100 mM NaCl, 1% NP-40, 1% sodium deoxycholate, 0.1% sodium dodecyl sulfate (SDS), and protease inhibitor cocktail, Calbiochem, Darmstadt, Germany). The protein extract (25 μg) was performed to SDS-polyacrylamide gel electorphoresis (PAGE) and transferred to polyvinylidene fluoride (PVDF) membranes.
Primary mouse anti-MHC (sc-376157, Santa Cruz) or primary mouse anti-MAFbx (sc-166806, Santa Cruz) was conjugated to the blots at 4° C., for 12 hrs and then conjugated with anti-mouse secondary antibody conjugated to Horseradish peroxidase (goat anti-mouse IgG-HRP, sc-2005, Santa Cruz) to analyze the amount of MHC and MAFbx protein by chemiluminescence method. […]
Background: A western blot detects proteins with antibodies after separation by electrophoresis.

Test [1] concerns C57/BL6 mice. Put plainly: Treadmill test in dexamethasone animal model of muscle loss. The test is classed as in vivo, mouse. As to conditions: dexamethasone 1 mg/kg s.c. alone. As to the method:
(§3) Dexamethasone, a synthetic glucocorticoid, was injected subcutaneously into C57/BL6 mouse mice to establish an animal model of muscle loss and following experiment was performed.
(§4) To establish an in vivo model of muscle loss, 6 weeks-old male C57/BL6 mice (Raon Bio, 6 weeks old, weight range: 32-36 g) were acclimated for one-week, and then weighed animals determined to be healthy during the acclimatization period. The mice close to the average weight were selected using a simple random sampling method and were classified into five groups, namely, (a) a control group, (b) a muscle loss control group (treated with dexamethasone 1 mg/kg), (c) test sample group treated with inventive extract 250 mg/kg and dexamethasone, (d) test sample group treated with inventive extract 500 mg/kg and dexamethasone, and (e) positive control treated with oxymetholone (Celltrion Co. Ltd, ATC #A14AA05, 10 mg/kg) and dexamethasone.
(§5) The inventive Extract and oxymetholone were administered once to the mice daily for 4 weeks and dexamethasone was injected subcutaneously for 10 days from 10 days before the end of co-treatment of inventive extract and oxymetholone.
(§6) Both of inventive extract and oxymetholone were forcibly administered orally using zonde for oral administration after holding and fixing the skin of the animal's poll area, and dexamethasone was injected slowly subcutaneously after inserting a syringe into the dorsal skin fold of the animal held on the thumb and index finger, slightly aspirating whether it was injected normally, and confirming that no blood came out.
The determination was performed on the 14th and 28th days after the administration of test sample.

A further test has as its system MAFbx. The test is described as follows: Western blot of MAFbx in dexamethasone-treated myotube cells (in vitro model of muscle loss). Format: cell-based, mouse. The note with it: myotube cells treated with dexamethasone alone; untreated cells = 1. As to the method:
as §1
In particular, following experiment was performed according to the procedure disclosed in the previous literature to find out whether inventive extract takes an effect on MAFbx expression during muscle protein degradation by dexamethasone treatment since the activity of MAFbx, a muscle proteolytic enzyme, is known to induce muscle protein loss (Biomed. Pharmacother. 2017, 95:1486)
as §2, with “membranes. […]” for “membranes.”

Test [2] can be described thus: Body weight in dexamethasone animal model of muscle loss. The test is classed as in vivo, mouse. The note with it: dexamethasone 1 mg/kg s.c. alone. As to the method:
as §3, §4, §5, §6
The body weight of every animal was measured once a week for 4 weeks from the day of inventive extract administration.

Test [3] deals with C57/BL6 mice. Put plainly: Grip strength test in dexamethasone animal model of muscle loss. The test is classed as in vivo, mouse. As to conditions: dexamethasone 1 mg/kg s.c. alone. The protocol: as §3, §4, §5, §6
The grip strength of mice was determined as follows; after grabbing the animal's tail and placing it on the grid, the front foot and body were pulled at the same speed until the front foot and body were held at the grid with the front paw, and the average value was calculated after three experimental repetitions. The determination was performed on the 14th and 28th days after the administration of test sample.

The subject of test [4] is C57/BL6 mice. Put plainly: Weight of muscle mass, epididymal fat and liver in dexamethasone animal model of muscle loss. Format: in vivo, mouse. The note with it: dexamethasone 1 mg/kg s.c. alone, autopsy at 4 weeks. As to the method: as §3, §4, §5, §6
The mice were anesthetized with anesthetic to prevent the movement of experimental animals and sacrificed to minimize pain to dissect them. All instruments used during the experiment were sterilized and disinfected and their liver and epididymis fat were harvested.
The gastrocnemius muscle and soleus muscle of the mice were separated, washed in saline, drained, and weighed.
After autopsy at 4 weeks after administration, the weight of liver and Epididymis fat was weighed to calculate weight-to-weight to compare the relative differences between the organ's weight in the groups.

On to `C[C@@H]1C[C@H]2[C@@H]3CCC4=CC(=O)C=C[C@]4(C)[C@@]3(F)[C@@H](O)C[C@]2(C)[C@@]1(O)C(=O)CO` [Dexa, dexamethasone], for which, in the test on MHC, the MHC expression is reported as 0.7 fold. Also, the “motility (treadmill)” value is 798.85 ± 14.33 meter with C57/BL6 mice [1] (2 weeks) and 745.73 ± 30.01 meter in the test with C57/BL6 mice [1] (4 weeks). The MAFbx expression in the test with MAFbx amounted to 1.9 fold. The body weight in test [2] (0 week) was 22.33 ± 1.11 gram; in test [2] (1 week) it was 22.84 ± 1.54 gram; in test [2] (2 weeks), 23.46 ± 1.60 gram; in test [2] (3 weeks), 23.57 ± 1.81 gram; in test [2] (4 weeks), 23.57 ± 1.76^ab gram. Moreover, the grip strength with C57/BL6 mice [3] (2 weeks) is on record as 1.05 ± 0.08 N; in the test on C57/BL6 mice [3] (4 weeks), 0.94 ± 0.12^b N. For the same molecule, the “absolute weight, epididymal fat” value with C57/BL6 mice [4] is on record as 0.51 ± 0.10 gram. For the same molecule, the “absolute weight, calf muscle” value with C57/BL6 mice [4] (gastrocnemius) is listed as 0.242 ± 0.014 gram. Further, the “absolute weight, fluke muscle” value with C57/BL6 mice [4] (soleus) was 0.014 ± 0.002^c gram.
